Source: paper PMC4902181 (Journal of medicinal chemistry, 2015)
pIC50: −log10 of the molar value. “Also recorded” adds a separate entry of the source.

How the values were obtained:
[1] = Human liver microsomal stability; type: in vitro ADME; conditions: compound 10 µM, 30 min incubation
[2] = tested on: lipofuscin bisretinoids; conditions: chronic oral administration, Abca4−/− mouse; cited from earlier work
[3] = Rat liver microsomal stability; type: in vitro ADME; conditions: compound 10 µM, 30 min incubation
[4] = tested on: serum RBP4; conditions: chronic oral administration, Abca4−/− mouse; cited from earlier work
[5] = 30 min incubation; cited from earlier work
[6] = target: RBP4 (Homo sapiens, UniProt P02753); assay: RBP4 scintillation proximity assay; type: binding
[7] = target: RBP4-TTR interaction (Homo sapiens, UniProt P02753); assay: HTRF retinol-dependent RBP4-TTR interaction assay; type: biochemical; conditions: read-out: RBP4 HTRF IC50; 1 µM retinol
[8] = target: CYP2C9 (Homo sapiens, UniProt P11712); conditions: read-out: CYP2C9 inhibitory activity IC50; cited from earlier work
[9] = tested on: serum RBP4; conditions: acute and chronic rodent oral dosing; cited from earlier work
[10] = target: T1, human PXR (Homo sapiens, UniProt O75469); assay: Human PXR activation; conditions: data not shown
T1 sequence (O75469 1-434): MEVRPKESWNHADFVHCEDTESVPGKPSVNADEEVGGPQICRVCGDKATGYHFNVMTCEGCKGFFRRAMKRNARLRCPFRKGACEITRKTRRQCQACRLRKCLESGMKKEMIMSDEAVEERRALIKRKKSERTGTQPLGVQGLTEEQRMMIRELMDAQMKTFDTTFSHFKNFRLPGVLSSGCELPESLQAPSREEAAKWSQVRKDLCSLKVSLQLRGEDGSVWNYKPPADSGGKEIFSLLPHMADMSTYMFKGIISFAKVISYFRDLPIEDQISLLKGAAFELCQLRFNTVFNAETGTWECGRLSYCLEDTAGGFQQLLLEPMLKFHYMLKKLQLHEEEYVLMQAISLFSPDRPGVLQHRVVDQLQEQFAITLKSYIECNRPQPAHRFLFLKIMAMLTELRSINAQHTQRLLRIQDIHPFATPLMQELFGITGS

[11] = Single dose IV and PO PK in rats; type: in vivo; conditions: Sprague-Dawley, rat, plasma, 2 mg/kg
[12] = target: hERG channel (Homo sapiens, UniProt Q12809); assay: Patch-Xpress patch-clamp hERG assay; type: cell-based
[13] = tested on: panel of fifty-five GPCRs, enzymes, ion channels, and transporters; assay: Standard off-target screening panel; conditions: data not shown
[14] = tested on: MDCK-MDR1; assay: MDR1-MDCK permeability assay; type: in vitro ADME

Chain of hERG channel (Q12809 whole entry): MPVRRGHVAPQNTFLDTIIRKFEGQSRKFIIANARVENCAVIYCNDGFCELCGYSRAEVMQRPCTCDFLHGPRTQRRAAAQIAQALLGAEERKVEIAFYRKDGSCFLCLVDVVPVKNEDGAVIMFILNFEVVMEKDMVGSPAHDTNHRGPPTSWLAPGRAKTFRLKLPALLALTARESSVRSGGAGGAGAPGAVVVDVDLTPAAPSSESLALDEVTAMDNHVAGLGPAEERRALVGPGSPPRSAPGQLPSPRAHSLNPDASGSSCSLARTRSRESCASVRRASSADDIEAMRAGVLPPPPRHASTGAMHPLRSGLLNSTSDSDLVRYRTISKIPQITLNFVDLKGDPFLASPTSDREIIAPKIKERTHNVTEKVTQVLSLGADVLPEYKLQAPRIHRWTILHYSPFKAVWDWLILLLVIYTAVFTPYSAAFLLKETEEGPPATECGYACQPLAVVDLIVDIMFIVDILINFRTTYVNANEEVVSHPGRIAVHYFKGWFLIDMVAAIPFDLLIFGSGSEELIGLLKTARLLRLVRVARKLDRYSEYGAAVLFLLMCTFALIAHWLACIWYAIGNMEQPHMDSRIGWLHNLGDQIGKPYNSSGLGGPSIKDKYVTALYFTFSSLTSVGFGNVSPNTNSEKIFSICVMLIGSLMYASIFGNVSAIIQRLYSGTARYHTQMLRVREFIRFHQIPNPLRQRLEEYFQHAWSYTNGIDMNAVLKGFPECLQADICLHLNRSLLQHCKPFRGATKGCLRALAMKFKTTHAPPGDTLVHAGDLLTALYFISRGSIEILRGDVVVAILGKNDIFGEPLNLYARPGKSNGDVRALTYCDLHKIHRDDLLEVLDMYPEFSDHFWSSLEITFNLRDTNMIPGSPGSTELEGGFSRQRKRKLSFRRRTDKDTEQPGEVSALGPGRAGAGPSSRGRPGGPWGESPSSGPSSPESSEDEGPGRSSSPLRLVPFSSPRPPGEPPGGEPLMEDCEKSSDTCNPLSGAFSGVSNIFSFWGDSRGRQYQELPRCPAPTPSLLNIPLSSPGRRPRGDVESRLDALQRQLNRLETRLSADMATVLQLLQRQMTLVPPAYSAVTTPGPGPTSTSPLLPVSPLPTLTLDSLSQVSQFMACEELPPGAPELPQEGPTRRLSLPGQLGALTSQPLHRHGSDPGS
Chain of CYP2C9 (P11712 whole entry): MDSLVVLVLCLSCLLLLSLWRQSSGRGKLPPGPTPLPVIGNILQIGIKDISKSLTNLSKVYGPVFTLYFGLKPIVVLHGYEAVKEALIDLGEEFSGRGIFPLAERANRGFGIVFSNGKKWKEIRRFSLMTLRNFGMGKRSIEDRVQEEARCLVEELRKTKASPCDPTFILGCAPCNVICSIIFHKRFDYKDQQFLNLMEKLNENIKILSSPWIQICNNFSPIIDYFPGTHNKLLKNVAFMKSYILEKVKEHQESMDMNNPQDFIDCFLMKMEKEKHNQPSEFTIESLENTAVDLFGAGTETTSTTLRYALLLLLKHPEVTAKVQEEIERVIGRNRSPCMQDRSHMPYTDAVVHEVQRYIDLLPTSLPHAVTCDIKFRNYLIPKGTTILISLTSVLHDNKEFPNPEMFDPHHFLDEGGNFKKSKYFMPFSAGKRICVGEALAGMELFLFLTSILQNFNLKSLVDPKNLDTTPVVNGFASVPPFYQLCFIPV

| SMILES | microsomal stability (% remaining) HLM [1] [% remaining] | microsomal stability (% remaining) RLM [3] [% remaining] | also measured |
| --- | --- | --- | --- |
| O=C(O)c1ccccc1NC(=O)N1CCC(c2ccccc2C(F)(F)F)CC1 [Compound 3, A1120, reference compound] | 3 | 85 | reduction of accumulation of lipofuscin bisretinoids [2]: approximately 50%; reduction in serum RBP4 [4]: 75%; HLM stability (% remaining) [5]: ~ 3 % remaining |
| O=C(O)c1ccccc1NC(=O)N1C[C@H]2C[C@@H](c3ccccc3C(F)(F)F)C[C@H]2C1 [Compound 4, 2-((3aR,5r,6aS)-5-(2-(trifluoromethyl)phenyl)octahydrocyclopenta[c]pyrrole-2-carboxamido)benzoic acid] | 100 | 75 | pIC50 ([6]; read-out: RBP4 SPA IC50, fixed 10 nM 3H-retinol): 7.14; pIC50 [7]: 6.53; pIC50 [8]: 6.47; lowering of serum RBP4 levels [9]: > 85%; HLM stability (% remaining) [5]: 100 % remaining |
| Cc1cc(C(=O)O)nc(N2CCC(c3ccccc3C(F)(F)F)CC2)n1 [Compound 10, 6-Methyl-2-(4-(2-(trifluoromethyl)phenyl)piperidin-1-yl)-pyrimidine-4-carboxylic Acid] | 68 | 96 |  |
| COC(=O)c1cc(C)nc(N2CCN(c3ccccc3C(F)(F)F)CC2)n1 [Compound 13, methyl 6-methyl-2-(4-(2-(trifluoromethyl)phenyl)piperazin-1-yl)-pyrimidine-4-carboxylate] | 0.0 | 0.0 |  |
| Cc1cc(C(=O)O)nc(N2CCN(c3ccccc3C(F)(F)F)CC2)n1 [Compound 14, 6-Methyl-2-(4-(2-(trifluoromethyl)phenyl)piperazin-1-yl)-pyrimidine-4-carboxylic Acid] | 18 | 63 |  |
| Cc1cc(C(=O)O)nc(N2C[C@@H]3CN(c4ccccc4C(F)(F)F)C[C@@H]3C2)n1 [Compound 18, 6-Methyl-2-((3aR,6aS)-5-(2-(trifluoromethyl)phenyl)hexahydropyrrolo[3,4-c]pyrrol-2(1H)-yl)pyrimidine-4-carboxylic Acid] | 80 | 76 |  |
| COC(=O)c1cc(C)nc(N2C[C@H]3C[C@@H](c4ccccc4C(F)(F)F)C[C@H]3C2)n1 [Compound 28, Methyl 6-Methyl-2-((3aR,5r,6aS)-5-(2-(trifluoromethyl)phenyl)-hexahydrocyclopenta[c]pyrrol-2(1H)-yl)pyrimidine-4-carboxylate] | 0.2 | 9.8 |  |
| Cc1cc(C(=O)O)nc(N2C[C@H]3C[C@@H](c4ccccc4C(F)(F)F)C[C@H]3C2)n1 [Compound 33, 6-Methyl-2-((3aR,5r,6aS)-5-(2-(trifluoromethyl)phenyl)-hexahydrocyclopenta[c]pyrrol-2(1H)-yl)pyrimidine-4-carboxylic Acid] | 94 | 93 | human PXR activation [10]: did not induce human PXR activation; clearance [11]: 5.06 mL/h/kg; off-target activity at the hERG channel [12]: no significant off-target activity; off-target activity in screening panel [13]: no significant off-target activity; MDCK-MDR1 permeability class [14]: highly permeable; also recorded: high permeability |
| Cc1cc(C(=O)O)nc(N2C[C@H]3C[C@H](c4ccccc4C(F)(F)F)C[C@H]3C2)n1 [Compound 40, 6-Methyl-2-((3aR,5s,6aS)-5-(2-(trifluoromethyl)phenyl)-hexahydrocyclopenta[c]pyrrol-2(1H)-yl)pyrimidine-4-carboxylic Acid] |  |  | RBP4 activity [6]: devoid of RBP4 activity |
| O=C(O)c1cncc(N2C[C@H]3C[C@@H](c4ccccc4C(F)(F)F)C[C@H]3C2)c1 [Compound 51, 5-((3aR,5r,6aS)-5-(2-(Trifluoromethyl)phenyl)hexahydrocyclopenta[c]pyrrol-2(1H)-yl)nicotinic Acid] |  |  | RBP4 activity [6]: devoid of RBP4 activity |
